Data taken from US20080275073A1, “CRYSTALLINE FORMS AND POLYMORPHS OF N-(3-(DIMETHYLAMINO)PROPYL)-4-(4-(3-FLUORO-4-METHOXYPHENYL) PYRIMIDIN-2-YLAMINO) BENZENESULFONAMIDE AS PHARMACEUTICALLY ACCEPTABLE SALTS” (Wyeth, priority 2007, published 2008).

What was measured:
[1] = solubility of free base in organic solvents / group 3 solvents; type: physicochemical; details: free base form
Protocol: (§1) In an exemplary embodiment, the solubility of the free base form of compound 3 in THF, DMSO and DMF was high but the solubility in group 3 solvents, including water for example, was low. For example, acetone is needed to dissolve the free base at 50° C. […] HCl, phosphoric acid, tartaric acid, acetic acid, D-, L-glucoronic acid and succinic acid were used to prepare pharmaceutically acceptable salts of compound 3. One crystalline form of compound 3 as a mono-succinate salt and five crystalline polymorphs of compound 3 as a hemi-succinate salt are provided in the Examples.

[2] = water solubility of free base and salts of compound 3; type: physicochemical
Protocol: as §1

With `COc1ccc(-c2ccnc(Nc3ccc(S(=O)(=O)NCCCN(C)C)cc3)n2)cc1F` [compound 3] the “solubility in DMF” value ([1]; DMF) was “high”, the “solubility in DMSO” value ([1]; DMSO) was “high” and the “solubility in THF” value ([1]; THF) was “high”. The “solubility in group 3 solvents, including water” value ([1]; group 3 solvents, including water) was “low” and the Solubility in water ([2]; free base, thermogravimeteric method) was “not detectable”.

With `COc1ccc(-c2ccnc(Nc3ccc(S(=O)(=O)NCCCN(C)C)cc3)n2)cc1F.O=C(O)CCC(=O)O` [mono-succinate, N-(3-(dimethylamino)propyl)-4-(4-(3-fluoro-4-methoxyphenyl)pyrimidin-2-ylamino)benzenesulfonamide] the solubility ([2]; thermodynamic from solid, in water) was 1.1 mg/mL.
